ChEMBL document CHEMBL1201862, “PubChem BioAssay data set” (2004)
Where “and” joins values, the source holds several entries; their conditions need not be identical. Equal entries are not always repeated.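 48-hour exposure; five concentrations; linearly interpolated endpoints. The concentration for 50% growth inhibition is given as GI50.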 Calls of active or inactive are those of the source. Rule as the data show it: active = GI50 up to about 1.1 µM and inactive = higher.

How the values were obtained:
Test in all cases: NCI anticancer screen, dose series, 48 h
[1] = system: TK-10
[2] = system: DU-145
[3] = system: IGROV-1
[4] = system: SR
[5] = system: RXF 393
[6] = system: LOX IMVI
[7] = system: SW-620
[8] = system: HCT-15
[9] = system: UACC-62
[10] = system: SK-MEL-5
[11] = system: PC-3
[12] = system: SK-MEL-2
[13] = system: UACC-257
[14] = system: BT-549
[15] = system: CCRF-CEM
[16] = system: KM12
[17] = system: HOP-92
[18] = system: T47D
[19] = system: SK-OV-3
[20] = system: A498

Structure (SMILES)	GI50 [1]	GI50 [2]	GI50 [3]	GI50 [4]	GI50 [5]	GI50 [6]	GI50 [7]	GI50 [8]	GI50 [9]	GI50 [10]	GI50 [11]	GI50 [12]	GI50 [13]	GI50 [14]	GI50 [15]	GI50 [16]	GI50 [17]	GI50 [18]	GI50 [19]	GI50 [20]
CC(=O)CCC(=O)C(=[N+]=[N-])S(=O)(=O)c1ccccc1	> 100 µM (inactive)	> 100 µM (inactive)	> 100 µM (inactive)	> 100 µM (inactive)	> 100 µM (inactive)	> 100 µM (inactive)	> 100 µM (inactive)	> 100 µM	> 100 µM (inactive)	> 100 µM (inactive)	> 100 µM (inactive)	> 100 µM (inactive)	> 100 µM (inactive)	> 100 µM (inactive)	> 100 µM (inactive)	> 100 µM (inactive)	–	–	–	–
Nc1ccn(C2CCC(COP(=O)(O)OCC(O)COP(=O)(O)OCC3OC(n4cc(F)c(=O)[nH]c4=O)CC3O)O2)c(=O)n1 (configuration not stated)	5.14 µM (inactive)	0.165 µM (active)	11.2 µM (inactive)	–	3.33 µM (inactive)	< 0.0149 µM (active)	> 100 µM (inactive)	14.4 µM	0.136 µM (active)	0.514 µM (active)	2.01 µM (inactive)	75.3 µM (inactive)	> 100 µM (inactive)	3.09 µM (inactive)	0.124 µM (active)	> 38.1 µM (inactive)	0.0419 µM (active)	1.42 µM (inactive)	59.2 µM (inactive)	–
CCNC(=O)CCC(C)[C@H]1CCC2C3C(C[C@H](OC(C)=O)[C@@]21C)[C@@]1(C)CCC2(C[C@H]1C[C@H]3OC(C)=O)OOC1(CCC(C)CC1)OO2 (some centres not stated)	2.3 µM (inactive) and 2.43 µM (inactive)	1.73 µM (inactive) and 2.37 µM (inactive)	1.35 µM (inactive) and 1.41 µM (inactive)	1.17 µM (inactive) and 1.03 µM (active)	–	1.83 µM (inactive) and 2.05 µM (inactive)	4.6 µM (inactive) and 2.74 µM (inactive)	1.99 µM and 2 µM	1.69 µM (inactive) and 2.26 µM (inactive)	1.67 µM (inactive) and 1.61 µM (inactive)	–	1.58 µM (inactive) and 1.61 µM (inactive)	4.63 µM (inactive) and 2.62 µM (inactive)	2.03 µM (inactive) and 1.57 µM (inactive)	710 nM (active) and 1.24 µM (inactive)	1.64 µM (inactive) and 1.57 µM (inactive)	1.68 µM (inactive) and 1.44 µM (inactive)	1.43 µM (inactive) and 1.68 µM (inactive)	4.02 µM (inactive) and 2.54 µM (inactive)	–
Cn1c2ccccc2c2c(=O)[nH]c(=O)[nH]c21	> 100 µM (inactive)	> 100 µM (inactive)	> 100 µM (inactive)	> 100 µM (inactive)	> 100 µM (inactive)	> 100 µM (inactive)	> 100 µM (inactive)	> 100 µM	> 100 µM (inactive)	> 100 µM (inactive)	–	> 100 µM (inactive)	> 100 µM (inactive)	> 100 µM (inactive)	> 100 µM (inactive)	> 100 µM (inactive)	> 100 µM (inactive)	> 100 µM (inactive)	> 100 µM (inactive)	> 100 µM (inactive)
CCCCc1ccc(Nc2nc(OC)c3ncn(C4CC(O)C(CO)O4)c3n2)cc1 (configuration not stated)	23.4 µM (inactive)	19.6 µM (inactive)	12.5 µM (inactive)	–	14.8 µM (inactive)	12.1 µM (inactive)	19.7 µM (inactive)	13.9 µM	17 µM (inactive)	18.7 µM (inactive)	18.1 µM (inactive)	20.2 µM (inactive)	17.7 µM (inactive)	18.9 µM (inactive)	17.5 µM (inactive)	16.5 µM (inactive)	1.97 µM (inactive)	18.9 µM (inactive)	13.2 µM (inactive)	19.7 µM (inactive)
CC(=O)OC1C2CCC3CC2C2(SCCS2)C31 (configuration not stated)	> 100 µM (inactive)	> 100 µM (inactive)	> 100 µM (inactive)	> 100 µM (inactive)	> 100 µM (inactive)	> 100 µM (inactive)	> 100 µM (inactive)	> 100 µM	> 100 µM (inactive)	> 100 µM (inactive)	> 100 µM (inactive)	> 100 µM (inactive)	> 100 µM (inactive)	–	–	> 100 µM (inactive)	> 100 µM (inactive)	> 100 µM (inactive)	> 100 µM (inactive)	> 100 µM (inactive)
N#Cc1c(O)c(/C=N/c2ncccn2)c(=O)n2c1[nH]c1ccccc12	> 100 µM (inactive)	–	> 100 µM (inactive)	> 100 µM (inactive)	> 100 µM (inactive)	> 100 µM (inactive)	> 100 µM (inactive)	> 100 µM	–	> 100 µM (inactive)	> 100 µM (inactive)	> 100 µM (inactive)	> 100 µM (inactive)	> 100 µM (inactive)	> 100 µM (inactive)	> 100 µM (inactive)	> 100 µM (inactive)	> 100 µM (inactive)	> 100 µM (inactive)	> 100 µM (inactive)
CCOC(=O)c1cc2c3c(c(C(C)=O)c(OC)c2[nH]1)N(C(=O)CC)CC3	–	15.6 µM (inactive)	13.6 µM (inactive)	–	19.6 µM (inactive)	14.6 µM (inactive)	24.9 µM (inactive)	16.5 µM	16.3 µM (inactive)	10.9 µM (inactive)	23.3 µM (inactive)	22.3 µM (inactive)	19.4 µM (inactive)	17.3 µM (inactive)	13.7 µM (inactive)	10.7 µM (inactive)	13.5 µM (inactive)	4.93 µM (inactive)	50.1 µM (inactive)	36.9 µM (inactive)
COCN1C(=O)[C@@H]2CCCN2C(=O)c2cc(N)ccc21	> 100 µM (inactive)	> 100 µM (inactive)	> 100 µM (inactive)	–	> 100 µM (inactive)	> 100 µM (inactive)	> 100 µM (inactive)	> 100 µM	> 100 µM (inactive)	–	> 100 µM (inactive)	> 100 µM (inactive)	> 100 µM (inactive)	> 100 µM (inactive)	–	> 100 µM (inactive)	–	> 100 µM (inactive)	> 100 µM (inactive)	> 100 µM (inactive)
COc1c(-c2ccc3c(c2)OCO3)oc2cc(O)cc(O)c2c1=O	95.1 µM (inactive)	59.3 µM (inactive)	26.2 µM (inactive)	22.6 µM (inactive)	14.9 µM (inactive)	45.4 µM (inactive)	–	55.6 µM	46.6 µM (inactive)	56.5 µM (inactive)	57.3 µM (inactive)	> 100 µM (inactive)	> 100 µM (inactive)	–	41.4 µM (inactive)	64.7 µM (inactive)	34.3 µM (inactive)	12.9 µM (inactive)	19.6 µM (inactive)	21.9 µM (inactive)
CCCCSC1=N/C(=C\c2ccccc2O)C(=O)N1	76.9 µM (inactive)	> 100 µM (inactive)	> 100 µM (inactive)	–	50.5 µM (inactive)	84.3 µM (inactive)	> 100 µM (inactive)	96.6 µM	44.3 µM (inactive)	–	23.4 µM (inactive)	57.8 µM (inactive)	31.2 µM (inactive)	49.4 µM (inactive)	–	49.8 µM (inactive)	44 µM (inactive)	32.7 µM (inactive)	> 100 µM (inactive)	28.2 µM (inactive)
O=C1CC(c2cccc([N+](=O)[O-])c2)C2(C(=O)NC(=O)NC2=O)C(c2cccc([N+](=O)[O-])c2)C1 (configuration not stated)	–	64.4 µM (inactive)	60.7 µM (inactive)	55.6 µM (inactive)	13.6 µM (inactive)	36.8 µM (inactive)	> 100 µM (inactive)	70.5 µM	98.4 µM (inactive)	> 100 µM (inactive)	69.7 µM (inactive)	> 100 µM (inactive)	> 100 µM (inactive)	> 100 µM (inactive)	32.9 µM (inactive)	27.5 µM (inactive)	36.5 µM (inactive)	–	> 100 µM (inactive)	> 100 µM (inactive)
COc1ccc2nc3ccccc3c(NCCN(C)CCCl)c2c1	1.62 µM (inactive)	1.12 µM (active)	0.469 µM (active)	0.0303 µM (active)	0.592 µM (active)	0.336 µM (active)	0.175 µM (active)	0.515 µM	0.681 µM (active)	0.644 µM (active)	0.205 µM (active)	0.847 µM (active)	1.64 µM (inactive)	0.9 µM (active)	0.353 µM (active)	0.807 µM (active)	0.622 µM (active)	–	0.861 µM (active)	0.984 µM (active)
CCN1C(=O)C(=C/C=C/c2ccc(OC)cc2)C(=O)N(CC)C1=S	17.5 µM (inactive)	19.1 µM (inactive)	16.3 µM (inactive)	–	17.2 µM (inactive)	17.3 µM (inactive)	20.8 µM (inactive)	17.5 µM	16.7 µM (inactive)	26.5 µM (inactive)	19.4 µM (inactive)	> 100 µM (inactive)	16 µM (inactive)	26.7 µM (inactive)	20.6 µM (inactive)	20.3 µM (inactive)	14.2 µM (inactive)	> 100 µM (inactive)	23.1 µM (inactive)	–
CN(Cc1cnc2nc(N)nc(N)c2n1)c1ccc(C(=O)NC(CCS(=O)(=O)O)C(=O)O)cc1 (configuration not stated)	> 100 µM (inactive)	–	0.553 µM (active)	0.136 µM (active)	–	0.103 µM (active)	0.379 µM (active)	0.25 µM	0.508 µM (active)	1.79 µM (inactive)	0.0665 µM (active)	> 100 µM (inactive)	> 100 µM (inactive)	> 100 µM (inactive)	0.0312 µM (active)	0.661 µM (active)	> 100 µM (inactive)	> 100 µM (inactive)	> 100 µM (inactive)	> 100 µM (inactive)
